In ChEMBL document CHEMBL5252668, “Targeting the "Undruggable" Driver Protein, KRASG12D, as Potential Therapy in Prostate Cancer” (ACS Med Chem Lett, 2023) one finds IC50 data, which are given here for ten compounds.

Assay [1] concerns the target T1, GTPase KRas (Homo sapiens, UniProt P01116, G12D).
Assay [2] has as its target T1, GTPase KRas. This is another data set of the same source.

T1 sequence (P01116 whole entry G12D): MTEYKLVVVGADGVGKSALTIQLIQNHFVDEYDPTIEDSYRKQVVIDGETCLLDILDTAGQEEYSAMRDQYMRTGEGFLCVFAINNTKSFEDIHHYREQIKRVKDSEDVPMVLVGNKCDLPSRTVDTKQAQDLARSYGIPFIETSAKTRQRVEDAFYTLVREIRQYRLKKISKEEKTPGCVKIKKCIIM

Turning to `CCc1c(F)ccc2cc(O)cc(-c3ncc4c(N5CCCC6(CC(=O)N6)C5)nc(OC[C@@]56CCCN5C[C@H](F)C6)nc4c3F)c12` (stereo not given in full), the results for the IC50 in assay [1] and in assay [2] were 44 nM and 2 nM, respectively.

Consider `Oc1cc(Cl)c(C2CC2)c(-c2ncc3c(N4CCCC5(CCO5)C4)nc(OC[C@@]45CCCN4C[C@H](F)C5)nc3c2F)c1` (stereo not given in full), for which the IC50 (commonly the concentration needed to halve the response being measured) turned out to be 66 nM in assay [1] and 2 nM in assay [2].

Take `Oc1cc(-c2ncc3c(N4CCC[C@]5(CCO5)C4)nc(OC[C@@]45CCCN4C[C@H](F)C5)nc3c2F)c2c(Cl)c(F)ccc2c1`: the IC50 in assay [1] amounted to 3 nM; in assay [2] it was 1 nM.

Regarding `CCc1cccc2cc(O)cc(-c3ncc4c(N5CCCC6(CC(O)C6)C5)nc(OC[C@@]56CCCN5C[C@H](F)C6)nc4c3F)c12` (stereo not given in full), the IC50 in assay [1] worked out at 22 nM; in assay [2], 1 nM.

Consider `C#Cc1c(F)ccc2cc(O)cc(-c3ncc4c(N5CCCC6(CCO6)C5)nc(OC[C@@]56CCCN5C[C@H](F)C6)nc4c3F)c12` (stereo not given in full), for which the IC50 in assay [1] was determined as 43 nM; in assay [2] it was 1 nM.

As for `CCc1cccc2cc(O)cc(-c3ncc4c(N5CCCC6(CCO6)C5)nc(OC[C@@]56CCCN5C[C@H](F)C6)nc4c3F)c12` (stereo not given in full), the IC50 in assay [1] came to 11 nM; in assay [2] it was 3 nM.

Consider `CCc1c(F)ccc2cc(O)cc(-c3ncc4c(N5CC(O)CC6(CC6)C5)nc(OC[C@@]56CCCN5C[C@H](F)C6)nc4c3F)c12` (stereo not given in full), for which the figures for the IC50 in assay [1] and in assay [2] were 34 nM and 2 nM, respectively.

With `CCc1c(F)ccc2cc(O)cc(-c3ncc4c(N5CCCC6(CCO6)C5)nc(OC[C@@]56CCCN5C[C@H](F)C6)nc4c3C)c12` (stereo not given in full), the IC50 in assay [1] came to 7 nM; in assay [2] it was 4 nM.

In the case of `Oc1cc(-c2ncc3c(N4CCCC5(CCO5)C4)nc(OC[C@@]45CCCN4C[C@H](F)C5)nc3c2F)c2c(F)c(F)ccc2c1` (stereo not given in full), the IC50 in assay [1] amounted to 9 nM; in assay [2], 2 nM.

With `Oc1cc(-c2ncc3c(N4CCCC5(CC(O)C5)C4)nc(OC[C@@]45CCCN4C[C@H](F)C5)nc3c2F)c2c(F)c(F)ccc2c1` (stereo not given in full), the IC50 was 119 nM in assay [1] and 2 nM in assay [2].
